These results are taken from patent publication US12485169B2, “Compounds” (GREY WOLF THERAPEUTICS LIMITED, priority 2018, dated 2025).

For orientation: IC50 means the concentration that inhibits the measured activity by half.

In the assay the target is T1, Purified ERAP1 (37-941)-10His (ERAP1) (Homo sapiens, UniProt Q9NZ08).
T1 construct: Purified ERAP1 (37-941)-10His (ERAP1)
T1 sequence (Q9NZ08 37-941): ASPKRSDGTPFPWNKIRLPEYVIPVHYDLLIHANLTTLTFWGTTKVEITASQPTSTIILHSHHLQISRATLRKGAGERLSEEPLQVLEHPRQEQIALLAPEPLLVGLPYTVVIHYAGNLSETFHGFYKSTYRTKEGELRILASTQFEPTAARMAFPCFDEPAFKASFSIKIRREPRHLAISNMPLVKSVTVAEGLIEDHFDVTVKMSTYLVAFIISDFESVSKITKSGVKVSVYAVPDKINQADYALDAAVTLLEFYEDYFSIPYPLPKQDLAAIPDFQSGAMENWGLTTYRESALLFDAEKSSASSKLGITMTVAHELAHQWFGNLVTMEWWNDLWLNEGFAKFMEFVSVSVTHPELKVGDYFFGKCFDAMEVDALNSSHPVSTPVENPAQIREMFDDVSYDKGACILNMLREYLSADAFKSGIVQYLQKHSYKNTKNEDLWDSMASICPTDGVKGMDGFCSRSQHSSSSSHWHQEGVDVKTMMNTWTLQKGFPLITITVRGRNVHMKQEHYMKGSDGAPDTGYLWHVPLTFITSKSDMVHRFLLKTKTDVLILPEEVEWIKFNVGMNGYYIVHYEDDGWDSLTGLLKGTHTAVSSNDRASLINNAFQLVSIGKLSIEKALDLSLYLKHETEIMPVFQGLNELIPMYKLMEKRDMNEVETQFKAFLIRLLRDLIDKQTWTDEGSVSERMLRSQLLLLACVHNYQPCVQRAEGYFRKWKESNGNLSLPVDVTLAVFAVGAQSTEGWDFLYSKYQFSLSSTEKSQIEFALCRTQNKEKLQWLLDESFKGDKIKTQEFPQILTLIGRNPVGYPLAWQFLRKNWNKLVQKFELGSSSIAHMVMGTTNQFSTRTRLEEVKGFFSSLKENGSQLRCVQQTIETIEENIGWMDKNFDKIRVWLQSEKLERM
Put plainly: ERAP1 mediated hydrolysis of an amide substrate (10-mer inhibition assay), biochemical system. To be noted: 10-mer substrate, 23° C., 1 h, excitation 279 nm / emission 355 nm; read-out: IC50 vs Decapeptide WRVYEKC(Dnp)ALK-acid (where Dnp is Dinitrophenyl maleimide) (10-mer). As to the method:
However, as ERAP1 hydrolyses the N-terminal amide bond and tryptophan is released this internal quenching is lost and the reaction is monitored by the increase in tryptophan fluorescence over the course of the assay. For the purposes of this application this assay is referred to as the “10mer inhibition assay” and compound potencies are calculated and expressed as IC50 as would be familiar to a person skilled in the art.
Biological Assay 1: ERAP1 Mediated Hydrolysis of an Amide Substrate Measured in a Biochemical System
Decapeptide WRVYEKC(Dnp)ALK-acid (where Dnp is Dinitrophenyl maleimide) (10-mer) L-Leucine 7-amido-4-methylcoumarin (L-AMC)
12.5 μL ERAP1 enzyme in 1×AB was combined with 250 nL test compound in DMSO. […] For detection, plates were read at excitation 365 nm and emission 442 nm (L-AMC) or excitation 279 nm and emission 355 nm (10-mer).
As to `COc1ccc(C(=O)O)cc1S(=O)(=O)Nc1cc(C(F)(F)F)ccc1N1CCCC(O)C1` (centres unmarked) [Example 177, 3-(N-(2-(3-hydroxypiperidin-1-yl)-5-(trifluoromethyl)phenyl)sulfamoyl)-4-methoxybenzoic acid], the IC50 is < 500 nM.

`COc1ccc(C(=O)O)cc1S(=O)(=O)Nc1cc(C(F)(F)F)ccc1N1CC[C@H](O)C1` [Example 178, (S)-3-(N-(2-(3-hydroxypyrrolidin-1-yl)-5-(trifluoromethyl)phenyl)sulfamoyl)-4-methoxybenzoic acid]: the IC50 is < 5000 nM.

Regarding `COc1ccc(C(=O)O)cc1S(=O)(=O)Nc1cc(C(F)(F)F)ccc1N1CCCC(OC)C1` (centres unmarked) [Example 179, 4-methoxy-3-(N-(2-(3-methoxypiperidin-1-yl)-5-(trifluoromethyl)phenyl)sulfamoyl)benzoic acid], the IC50 is < 500 nM. Next, `CCOC1CCN(c2ccc(C(F)(F)F)cc2NS(=O)(=O)c2cc(C(=O)O)ccc2OC)CC1` [Example 180, 3-(N-(2-(4-ethoxypiperidin-1-yl)-5-(trifluoromethyl)phenyl)sulfamoyl)-4-methoxybenzoic acid]: < 500 nM; `COc1ccc(C(=O)O)cc1S(=O)(=O)Nc1cc(C(F)(F)F)ccc1N1CCC(OC)CC1` [Example 181, 4-methoxy-3-(N-(2-(4-methoxypiperidin-1-yl)-5-(trifluoromethyl)phenyl)sulfamoyl)benzoic acid]: < 500 nM. Next, `COc1ccc(C(=O)O)cc1S(=O)(=O)Nc1cc(C#N)ccc1N1CCCCC1` [Example 182, 3-(N-(5-cyano-2-(piperidin-1-yl)phenyl)sulfamoyl)-4-methoxybenzoic acid]: < 500 nM; `CCc1ccc(C(=O)O)cc1S(=O)(=O)Nc1cc(C(F)(F)F)ccc1N1CC(O)C1` [Example 183, 4-ethyl-3-(N-(2-(3-hydroxyazetidin-1-yl)-5-(trifluoromethyl)phenyl)sulfamoyl)benzoic acid]: > 5000 nM. Next, `COc1ccc(C(=O)O)cc1S(=O)(=O)Nc1cc(C(F)(F)F)cc(F)c1N1CCCCC1` [Example 184, 3-(N-(3-fluoro-2-(piperidin-1-yl)-5-(trifluoromethyl)phenyl)sulfamoyl)-4-methoxybenzoic acid]: < 500 nM; `COc1ccc(C(=O)O)cc1S(=O)(=O)Nc1cc(C(F)(F)F)ccc1N1CCC(O)(C2CC2)CC1` [Example 185, 3-(N-(2-(4-cyclopropyl-4-hydroxypiperidin-1-yl)-5-(trifluoromethyl)phenyl)sulfamoyl)-4-methoxybenzoic acid]: < 500 nM.

`COc1ccc(C(=O)O)cc1S(=O)(=O)Nc1cc(C(F)(F)F)ccc1N1CCC2(CCO2)CC1` [Example 186, 3-(N-(2-(1-oxa-7-azaspiro[3.5]nonan-7-yl)-5-(trifluoromethyl)phenyl)sulfamoyl)-4-methoxybenzoic acid]: the IC50 is < 500 nM. For `COc1ccc(C(=O)O)cc1S(=O)(=O)Nc1cc(C(F)(F)F)ccc1N1CCC(OC(C)C)CC1` [Example 187, 3-(N-(2-(4-isopropoxypiperidin-1-yl)-5-(trifluoromethyl)phenyl)sulfamoyl)-4-methoxybenzoic acid], the IC50 was < 5000 nM.

Regarding `COc1ccc(C(=O)O)cc1S(=O)(=O)Nc1cc(C(F)(F)F)ccc1N1CC[C@@H](O)C1` [Example 188, (R)-3-(N-(2-(3-hydroxypyrrolidin-1-yl)-5-(trifluoromethyl)phenyl)sulfamoyl)-4-methoxybenzoic acid], the IC50 is < 5000 nM. Regarding `CCC1(O)CN(c2ccc(C(F)(F)F)cc2NS(=O)(=O)c2cc(C(=O)O)ccc2OC)C1` [Example 189, 3-(N-(2-(3-ethyl-3-hydroxyazetidin-1-yl)-5-(trifluoromethyl)phenyl)sulfamoyl)-4-methoxybenzoic acid], the IC50 is > 5000 nM. The figure for `O=C(O)c1ccc(C(F)(F)F)c(S(=O)(=O)Nc2cc(C(F)(F)F)ccc2N2CCCCC2)c1` [Example 200, 3-(N-(2-(piperidin-1-yl)-5-(trifluoromethyl)phenyl)sulfamoyl)-4-(trifluoromethyl)benzoic acid] is < 5000 nM.
